Patent US10351501B2, “Gem difluorocompounds as depigmenting or lightening agents” (TFCHEM, priority 2015, dated 2019)

Legend:
[1] = In vitro stability: hydroquinone released in various chemical conditions (HPLC-UV/DAD); assay type: physicochemical
Method: The stability of compound 11 was evaluated by the released of hydroquinone, which is a potentially toxic compound, in different chemical conditions (extreme conditions, simulating the application of these molecules on the skin) and it was compared to the deoxyarbutin.
This study involved different tests as degradation test and chemical stability (various chemical solutions, pH and temperatures).
Analytical Method (HPLC-UV/DAD Method)
Column Atlantis dC18 150 mm*4.6 mm*3 μm Waters, 30° C. Injection 50 μl, 25° C. λ: 220 nm, 265 nm, 285 nm. A-Acetonitrile B-Water; 0.8 ml/min; elution gradient: […]
This analytical method gave linear response for compound 11, Deoxyarbutin and Hydroquinone from 25 ng/mL to 1000 ng/mL. Dilution of samples had to be taken into account for each stability study to calculate the LLOQ of each compound.
The tested compounds are incubated in different solutions, at different times (see table 1). Then the analytical method was used to quantify remaining compounds and potential hydroquinone released (as possible degradation of compounds).
Hydroquinone (HQ) apparition is expressed as a percentage of initial compound 11 or Deoxyarbutin. The calculation was done in molar units and the limit of quantification fluctuates with the initial concentration.

human tyrosinase = test: HumanLike Tyrosinase Assay kit (Feldan), L-Tyrosine to dopachrome, OD at 490 nm; assay type: biochemical; details: for OD at 490 nm: 1.12 mM
Method: The efficacy of compound 16 was evaluated by the inhibition of human tyrosinase in tubo and compared to the compound 11.
The assay was performed with a ready-to-use kit from Feldan Inc (Canada): the HumanLike Tyrosinase Assay kit (ref A021-a-001Kit).
The protocol was performed as described in the instructions for use of the manufacturer. Briefly, this kit is intended for the determination of human tyrosinase activity in presence of different inhibitors. The kit measures the conversion of L-Tyrosine into a dopachrome complex absorbing at 490 nm. The time course of the assay is 20 minutes, after which the results are analyzed and compared.
The compounds 11 and 16 have been tested at a final concentration of 1.12 mM.
The measured absorbances at 490 nm are reported in the table 5 and plotted in function of time in the FIG. 1.
Moreover for each compound the efficacy as tyrosinase inhibitor was calculated using the following formula: […]

[2] = In vitro human skin absorption, Franz diffusion cell: quantification in skin fractions (epidermis, dermis); assay type: in vitro ADME; details: emulsion 0.1 mg/mL, 200 μL, T24 h
Excerpt: The aim of this study was to evaluate the absorption of compound 11 applied to excised human skin.
In vitro method using a Franz diffusion cell allows measuring the diffusion of chemicals into and across skin.
The tested compound is applied to the surface of a human skin explant separating the two chambers of a Franz diffusion cell. The compound remains on the skin for a specified time under specified conditions. The receptor fluid is sampled at time points throughout the experiment and analyzed for the tested compound. The skin may also be fractioned for separate analysis in epidermis or dermis layers.
The transcutaneous absorption was measured on human skin collected from the abdominoplasty of a single donor. […]
The tested compounds were quantified, at T0 h and T24 h in the receptor solution bathing the inner surface of the skin (determination of flux), or at T24 h in the fractionated skin extracts (epidermis or dermis).
To prepare the extracts, the skin explant is firstly divided in dermis and epidermis layers, then 500 μL of methanol were added on each piece of skin and incubated in an ultrasonic bath for 4 hours. […] Secondly the quantification of compounds by LC-MS/MS method was realized on 100 μl of the previous preparation added with 1000 μl of ultrapure water and 10 μl of an internal standard […]
The skin extracts were prepared at T24 h and the quantification of compound 11 was performed. […]

**Q.** For `Oc1ccc(OC2CCCCC2(F)F)cc1` (racemic) [Compound 11], which “% Hydroquinone released” value ([1]; Ringer's solution pH 5.5 at 70° C., 24 H) is on record?
**A.** 0.00%

**Q.** What about the “% Hydroquinone released” value ([1]; Ringer's solution pH 8.5 at 70° C., 24 H) of the same compound?
**A.** 0.00%

**Q.** What about the “% Hydroquinone released” value ([1]; Synthetic perspiration at RT, 48 H) of the same compound?
**A.** 0.00%

**Q.** And the “% Hydroquinone released” value ([1]; Water at room temperature, 14 Days)?
**A.** 0.00%

**Q.** And the Hydroquinone release ([1]; whatever the tested conditions)?
**A.** never released

**Q.** And the “OD at 490 nm” value (human tyrosinase; time 0 min)?
**A.** 0.0000

**Q.** And the “OD at 490 nm” value (human tyrosinase; time 1 min)?
**A.** 0.0095

**Q.** What about the “OD at 490 nm” value (human tyrosinase; time 2 min) of the same compound?
**A.** 0.0190

**Q.** And the “OD at 490 nm” value (human tyrosinase; time 3 min)?
**A.** 0.0295

**Q.** And the “OD at 490 nm” value (human tyrosinase; time 4 min)?
**A.** 0.0400

**Q.** And the “OD at 490 nm” value (human tyrosinase; time 5 min)?
**A.** 0.0505

**Q.** And the “OD at 490 nm” value (human tyrosinase; time 6 min)?
**A.** 0.0610

**Q.** What about the “OD at 490 nm” value (human tyrosinase; time 7 min) of the same compound?
**A.** 0.0715

**Q.** What about the “OD at 490 nm” value (human tyrosinase; time 8 min) of the same compound?
**A.** 0.0825

**Q.** What about the “OD at 490 nm” value (human tyrosinase; time 9 min) of the same compound?
**A.** 0.0925

**Q.** What about the “OD at 490 nm” value (human tyrosinase; time 10 min) of the same compound?
**A.** 0.1035

**Q.** And the “OD at 490 nm” value (human tyrosinase; time 11 min)?
**A.** 0.1135

**Q.** What about the “OD at 490 nm” value (human tyrosinase; time 12 min) of the same compound?
**A.** 0.1245

**Q.** And the “OD at 490 nm” value (human tyrosinase; time 13 min)?
**A.** 0.1355

**Q.** What about the “OD at 490 nm” value (human tyrosinase; time 14 min) of the same compound?
**A.** 0.1465

**Q.** What about the “OD at 490 nm” value (human tyrosinase; time 15 min) of the same compound?
**A.** 0.1575

**Q.** What about the “OD at 490 nm” value (human tyrosinase; time 16 min) of the same compound?
**A.** 0.1685

**Q.** What about the “OD at 490 nm” value (human tyrosinase; time 17 min) of the same compound?
**A.** 0.1790

**Q.** And the “OD at 490 nm” value (human tyrosinase; time 18 min)?
**A.** 0.1900

**Q.** And the “OD at 490 nm” value (human tyrosinase; time 19 min)?
**A.** 0.2010

**Q.** And the “OD at 490 nm” value (human tyrosinase; time 20 min)?
**A.** 0.2120

**Q.** And the “Inhibitor efficacy (%)” value (human tyrosinase; Compound at 1.12 mM, T = 20 min)?
**A.** 13.5%

**Q.** What about the “Quantity in skin extract” value ([2]; DERMIS) of the same compound?
**A.** 5.1 μg/g of tissue

**Q.** And the “Quantity in skin extract” value ([2]; EPIDERMIS)?
**A.** 22.3 μg/g of tissue
